Reference: paper PMC11178908, “Diabetes drugs activate neuroprotective pathways in models of neonatal hypoxic-ischemic encephalopathy” (EMBO Molecular Medicine, 2024)
Several values for one entry are separate records, joined by “and”; a condition that tells them apart may be missing. Identical values can stand only once. Entries after “also recorded” stand apart in the source; their conditions may differ.

Experiments:
[1] = tested on: P10 CD1 mice with surgically induced HI; experiment: Mortality after semaglutide in neonatal mice with HI; type: in vivo; conditions: semaglutide 0.5 µg/g (500 µg/kg), no glucose
Procedure: (§1) Thereafter, a dosing experiment was conducted to evaluate the optimal dose for semaglutide in the same neonatal HIE model (Fig. EV2F) and brain protection was measured using a macroscopic scoring system to assess the size of the infarct.
The body temperature was maintained using a heating mat. […] The pups were then immediately returned to the dam. […] 1% mortality was observed following this procedure. […] The study design is illustrated in Fig. EV1.

[2] = Blood glucose / hypoglycaemia; type: in vivo, P10 CD1 mice; conditions: for blood glucose: HI P10 mice
Procedure: as §1
Blood glucose levels (mmol/l) were measured using a blood glucose monitor (CodeFree, SD Biosensor) in naive controls and mice following one semaglutide dose administration (0.25 µg/g) with or without glucose supplementation, intraperitoneally or subcutaneously to determine the best route of administration. Blood samples were collected via cardiac puncture at 0.5 h, 2 h, 24 h, 7 days, and 14 days for glucose test. Brains of P10 naive mice or treated at the different time points were collected (n = 4 per group). All samples were processed using […] as per manufacturer’s instructions (Abcam).

[3] = tested on: GLP1-R; experiment: cAMP content in the brain of naïve P10 mice (blood-brain barrier crossing); type: in vivo
From the text: Brains of P10 naive mice or treated at the different time points were collected (n = 4 per group). All samples were processed using AMP direct immunoassay kit as per manufacturer’s instructions (Abcam).

[4] = tested on: pGSK3β-S9; experiment: pGSK3β-S9 protein level in brain (western blot) after HI
Procedure: Tissues were homogenized (Ultra-Turrax TP, IKA Labortechnik, Wasserburg, Germany) on ice in 300 ml of RIPA lysis buffer (Thermo) per 100 mg of tissue with 1X protease inhibitor cocktail (Thermo) and incubated for 30 min. Lysates were centrifuged at 14,000 × g, 4 °C for 20 min and overall protein concentrations of the supernatant were determined by Pierce BCA Protein Assay (Life Technologies). […] Proteins were transferred to PDVF membrane at 400 mA for 1 h and membrane was blocked for 1 h at 4 °C with 5% BSA in TBS with 3% Tween-20. Membranes were subsequently incubated overnight at 4 °C with primary antibodies (Appendix Table S2) with 3% BSA in TBS with 3% Tween-20. […] Blots were developed with the ECL system (SuperSignal West Pico, Life Technologies) and imaged using a Genegnome imager (Syngene, Cambridge, UK).
All experiments involved litters of postnatal day 10 CD1 mice (P10) bred in-house. […] This was achieved using heating mats, heated incubators and prompt returning of pups to the dam. […] The left common carotid artery was permanently occluded with 8/0 polypropylene suture and the wound closed with tissue glue. The body temperature was maintained using a heating mat. The mice recovered in an incubator at 37 °C and were returned to the dam for 1 h. […] The pups were then immediately returned to the dam. […] All treatments were administered immediately after HI via intraperitoneal administration. […] Treated animal were culled at either 48 h post HI for ST studies or 60 days post HI for LT studies.

[5] = tested on: HIF-1-α; experiment: HIF-1-α expression (qPCR) in primary neurons exposed to OGD; type: cell-based, CD1 mice; conditions: p < 0.0001 exendin-4, p < 0.0001 semaglutide
Procedure: (§2) Cells were plated at a density of 2 × 10^6 cells/6 cm plate and propagated. At DIV 10–12, neurons were subjected to oxygen–glucose deprivation (OGD) in neurobasal-A medium lacking glucose and incubated in a hypoxia chamber (Billups-Rothenburg Inc., Del Mar, CA, USA) filled with an anoxic atmosphere of 5% CO2 balanced in nitrogen at 37 °C for 2 h. […] Culture medium was assayed after 24 h.
(§3) RNA from neuron cultures or brains was extracted and isolated using RNeasy Mini kit (Qiagen) and first-strand cDNA was generated using High-Capacity cDNA Reverse Transcription kit (Applied Biosystems). Quantitative RT-PCR was carried out using a StepOnePlus (Applied Biosystems) with the SsoAdvanced™ Universal SYBR Green PCR Core Reagents Supermix (Bio-Rad). Primers sequences were designed to detect GLP1-R, CREB, GSK3β, il-10, IL-4, IL-1β, ATF-3, Bcl-2, Bcl-xL (Appendix Table S1). Data from StepOne™ software v2.3 were calibrated to Gapdh, and the relative quantitation of gene expression was performed using the comparative CT method.

[6] = tested on: human GLP1-R; experiment: GLP1-R activation, luciferase reporter in GLP1-R/pCRE-luciferase/CHO-K1 cells; type: cell-based; conditions: exendin-9 (500 nM) with 1 μM semaglutide or exendin-4
Procedure: For biological evaluation of GLP-1/Fc for human GLP1-R activation, GLP1-R/pCRE-Luciferase-co-expressed CHO cell lines were established using the lipofectamine method. […] Using a luciferase assay system (Promega – E1500), activity of the GLP1 receptor can be assessed following treatment with GLP1-R agonists for 24 h in 96-well plates.

[7] = tested on: CREB; experiment: CREB expression (qPCR) in primary neurons exposed to OGD; type: cell-based, CD1 mice; conditions: p = 0.0016 exendin-4, p = 0.0002 semaglutide
Procedure: as §2, §3

[8] = tested on: caspase 3; experiment: Caspase 3 activity in primary neurons exposed to OGD; type: cell-based, CD1 mice
Procedure: as §2
Culture medium was assayed after treatment at 24 h post-OGD. All samples were processed using Multiplex caspases 3, 8 and 9 activity assay kit as per manufacturer’s instructions (Abcam – Ab219915).

[9] = tested on: ATF-3; experiment: ATF-3 expression (qPCR, immunofluorescence) in primary neurons exposed to OGD; type: cell-based, CD1 mice
Procedure: as §2, §3
Neuronal cultures (n = 6 per group) were stained by simultaneous overnight incubation with ATF-3 and anti-NeuN antibodies (Appendix Table S2). Representative images were captured using a Zeiss LSM710 confocal microscope and Zen software (Carl Zeiss AG). […] All images were processed using Imaris v.9.1 (Bitplane AG).

Molecule	mortality / recovery after HI surgery [1]	blood glucose ([2]; 0.5 µg/g IP, 30 min, p = 0.0002)	blood glucose ([2]; 0.5 µg/g IP, 2 h, p = 0.0003)	blood glucose ([2]; 0.5 µg/g IP, 24 h, p = 0.0003)	blood glucose ([2]; 0.5 µg/g SC, 2 h, p = 0.0180)	blood glucose ([2]; 0.5 µg/g SC, 24 h, p = 0.0289)	hypoglycaemia with oral glucose supplementation ([2]; 2 mg/g oral glucose, semaglutide 0.5 µg/g)	fall in blood glucose ([2]; intraperitoneal, high dose in HI neonatal mice)	blood-brain barrier crossing ([3]; IP, naïve neonatal mice)	entry into the brain and GLP1-R activation, IP vs SC ([3]; p < 0.0001 at 30 mins, p = 0.0024 at 2 h)	pGSK3β-S9 protein level ([4]; after HI, western blot, relative to β-actin, single animals, n = 4)	pGSK3β-S9 protein level vs HI saline ([4]; p = 0.0001 both)	HIF-1-α expression vs OGD [5]	effect of antagonist on agonist-induced luciferase expression [6]	CREB expression vs OGD [7]	Caspase 3 activity ([8]; 24 h post-OGD, single replicates, n = 5, listed as Ex-9)	effect of antagonist on anti-apoptotic effects of exendin-4 and semaglutide ([8]; Bcl-xL, Bcl-2, caspases 3, 8, 9)	ATF-3 average expression/GAPDH ([9]; OGD neurons, treatment 2 h after OGD, qPCR, single samples, n = 3, listed as Ex-9)	ATF-3 expression vs OGD ([9]; qPCR and immunofluorescence, p = 0.0378 exendin-4, p = 0.0226 semaglutide)
CC[C@H](C)[C@H](NC(=O)[C@H](Cc1ccccc1)NC(=O)[C@H](CCC(=O)O)NC(=O)[C@H](CCCCNC(=O)COCCOCCNC(=O)COCCOCCNC(=O)CC[C@H](NC(=O)CCCCCCCCCCCCCCCCC(=O)O)C(=O)O)NC(=O)[C@H](C)NC(=O)[C@H](C)NC(=O)[C@H](CCC(N)=O)NC(=O)CNC(=O)[C@H](CCC(=O)O)NC(=O)[C@H](CC(C)C)NC(=O)[C@H](Cc1ccc(O)cc1)NC(=O)[C@H](CO)NC(=O)[C@H](CO)NC(=O)[C@@H](NC(=O)[C@H](CC(=O)O)NC(=O)[C@H](CO)NC(=O)[C@@H](NC(=O)[C@H](Cc1ccccc1)NC(=O)[C@@H](NC(=O)CNC(=O)[C@H](CCC(=O)O)NC(=O)C(C)(C)NC(=O)[C@@H](N)Cc1cnc[nH]1)[C@@H](C)O)[C@@H](C)O)C(C)C)C(=O)N[C@@H](C)C(=O)N[C@@H](Cc1c[nH]c2ccccc12)C(=O)N[C@@H](CC(C)C)C(=O)N[C@H](C(=O)N[C@@H](CCCNC(=N)N)C(=O)NCC(=O)N[C@@H](CCCNC(=N)N)C(=O)NCC(=O)O)C(C)C [semaglutide]	increased mortality; also recorded: some mice did not recover from HI surgery	Statistically significant hypoglycaemia	Statistically significant hypoglycaemia	Statistically significant hypoglycaemia	Statistically significant hypoglycaemia	Statistically significant hypoglycaemia	completely compensated for by oral supplementation with 2 mg/g glucose	drop significantly within 30 min	cross the blood-brain barrier	more rapid when the agonist was given IP compared with subcutaneously	0.3664 and 0.5017 and 0.5395 and 0.3157	modulated	–	–	–	–	–	–	–
exendin 9-39 [exendin-9]	–	–	–	–	–	–	–	–	–	–	–	–	inhibited this improvement	inhibited	blocked this effect	1.4812 and 1.737 and 1.2406 and 1.699 and 1.511	inhibited the anti-apoptotic effects	21.697 and 22.687 and 26.651	inhibited this effect
